US10072017B2, “Compounds and methods for the treatment of cystic fibrosis” (Flatley Discovery Lab, LLC, priority 2015, dated 2018)

Target: T1, CFTR (Homo sapiens, UniProt P13569, DEL508-508)
T1 construct: Primary CF airway epithelial cells were obtained from the UNC Cystic Fibrosis Tissue Procurement and Cell Culture Core; host or cells: primary CF airway epithelial cells
Experiment: Equivalent current assay in Primary CF airway epithelial cells (NAUC)
Format: cell-based
Details: 24 h, normalized to VX809 (3 μM) positive control; for Nauc @ 3 μM: 3 μM test compound; for Nauc @ 10 μM: 10 μM test compound
Experimental: Primary CF airway epithelial cells were obtained from the UNC Cystic Fibrosis Tissue Procurement and Cell Culture Core. The cells are grown at 37° C. in a Heracell 150i incubator using growth media (BEGM, Fischer). Cells were then transferred to differentiation media (ALI, UNC) for a minimum of 4 weeks on coated Costar snapwells. Two days before the Ussing assay the mucus on the apical surface of the cells was aspirated after incubating with 200 μL of differentiation Media for at least thirty (30) minutes. One day before the Ussing assay test compounds were added to the basolateral surface of the cells at various test concentrations dissolved in DMSO. Duplicate wells were prepared giving a n=3 or n=4 protocol.
Cells were treated for 24 hours with various combinations and concentrations of the test articles, reference standard (3 μM VX809, positive control). Compounds stock solutions were prepared in DMSO and diluted 1/1000 into ALI media to their final assay concentration. Cells were treated with combination solutions (2 mL of each dilution) and incubated at 37° C. for 24 h.
For the equivalent current assay, cells on four Transwell (24-well) plates were treated. Each Transwell plate was filled with 200 μl of HBS on the apical surface and 2 ml on the basolateral surface. Plates were placed horizontally in a heated mount at 37° C., and equilibrated for several minutes. Resting current was measured for 15 min and then blocked by the apical addition of 5 μM benzamil. After 20 min, 10 μM forskolin and 1 μM VX770 were added to both the apical and basolateral side to stimulate CFTR. An increase in chloride current is seen as an upward deflection of the trace. After another 30 min, CFTR-172 (a CFTR inhibitor, 20 μM) and/or bumetanide (20 uM) was added to block CFTR mediated chloride current.
The raw data, current vs. time for the Ussing chamber (sampling interval: 10 s) and voltage vs. time and resistance vs. time for the equivalent current assay (sampling interval: 5 minutes) were transferred to Excel (Microsoft Office Professional, version 14.0.7106.5003) for analysis. CFTR specific current was measured as the average amplitude of the increase in current elicited upon addition forskolin and ending upon addition of the CFTR channel specific blocker CFTR-172. This average is equivalent to the sum of the average forskolin activated and the average VX770-potentiated currents. The average current measured in vehicle (0.1% DMSO) treated cells, Iv, was subtracted from the current for the test article, ITA, or from the corrector reference standard VX809 (3 uM ISTD. For replicate measurements, the average vehicle subtracted response for the test article, was normalized to the average vehicle subtracted inhibitor response of the reference corrector VX809 (3 μM). INSC=(ITA−IV)(ave)/(ISTD−IV)(ave) (Equation 1)
A second endpoint, for the equivalent current assay, evaluated was NAUC, the normalized area under the curve (AUC) measuring the response after addition of forskolin and VX770 to the time point right before the addition of the CFTR inhibitor. The AUC is effectively the average response multiplied by the duration of the response. The AUC of the test article, AUCTA was then corrected by subtracting the average vehicle response, AUCV,ave over the same time range, and normalized as for the inhibitor-sensitive current to the difference of the corrector reference standard VX809 (3 μM VX809r,ave and the vehicle response: NAUCTA=[AUCTA−AUCV,ave]/[AUCVx809r,ave−AUCV,ave] (Equation 2).
The normalized value for DMSO is 0.0 and for VX-809 alone is 1.0. Combinations of compounds with VX-809 that give normalized values greater than 1.0 show activity in the combination assay. A value of 2 means the test compound doubles the effect to VX-809 alone.
Experiments were run with a minimum of n=4 replicates per concentration. […]

T1 sequence (P13569 with tags, fused parts or gaps DEL508-508): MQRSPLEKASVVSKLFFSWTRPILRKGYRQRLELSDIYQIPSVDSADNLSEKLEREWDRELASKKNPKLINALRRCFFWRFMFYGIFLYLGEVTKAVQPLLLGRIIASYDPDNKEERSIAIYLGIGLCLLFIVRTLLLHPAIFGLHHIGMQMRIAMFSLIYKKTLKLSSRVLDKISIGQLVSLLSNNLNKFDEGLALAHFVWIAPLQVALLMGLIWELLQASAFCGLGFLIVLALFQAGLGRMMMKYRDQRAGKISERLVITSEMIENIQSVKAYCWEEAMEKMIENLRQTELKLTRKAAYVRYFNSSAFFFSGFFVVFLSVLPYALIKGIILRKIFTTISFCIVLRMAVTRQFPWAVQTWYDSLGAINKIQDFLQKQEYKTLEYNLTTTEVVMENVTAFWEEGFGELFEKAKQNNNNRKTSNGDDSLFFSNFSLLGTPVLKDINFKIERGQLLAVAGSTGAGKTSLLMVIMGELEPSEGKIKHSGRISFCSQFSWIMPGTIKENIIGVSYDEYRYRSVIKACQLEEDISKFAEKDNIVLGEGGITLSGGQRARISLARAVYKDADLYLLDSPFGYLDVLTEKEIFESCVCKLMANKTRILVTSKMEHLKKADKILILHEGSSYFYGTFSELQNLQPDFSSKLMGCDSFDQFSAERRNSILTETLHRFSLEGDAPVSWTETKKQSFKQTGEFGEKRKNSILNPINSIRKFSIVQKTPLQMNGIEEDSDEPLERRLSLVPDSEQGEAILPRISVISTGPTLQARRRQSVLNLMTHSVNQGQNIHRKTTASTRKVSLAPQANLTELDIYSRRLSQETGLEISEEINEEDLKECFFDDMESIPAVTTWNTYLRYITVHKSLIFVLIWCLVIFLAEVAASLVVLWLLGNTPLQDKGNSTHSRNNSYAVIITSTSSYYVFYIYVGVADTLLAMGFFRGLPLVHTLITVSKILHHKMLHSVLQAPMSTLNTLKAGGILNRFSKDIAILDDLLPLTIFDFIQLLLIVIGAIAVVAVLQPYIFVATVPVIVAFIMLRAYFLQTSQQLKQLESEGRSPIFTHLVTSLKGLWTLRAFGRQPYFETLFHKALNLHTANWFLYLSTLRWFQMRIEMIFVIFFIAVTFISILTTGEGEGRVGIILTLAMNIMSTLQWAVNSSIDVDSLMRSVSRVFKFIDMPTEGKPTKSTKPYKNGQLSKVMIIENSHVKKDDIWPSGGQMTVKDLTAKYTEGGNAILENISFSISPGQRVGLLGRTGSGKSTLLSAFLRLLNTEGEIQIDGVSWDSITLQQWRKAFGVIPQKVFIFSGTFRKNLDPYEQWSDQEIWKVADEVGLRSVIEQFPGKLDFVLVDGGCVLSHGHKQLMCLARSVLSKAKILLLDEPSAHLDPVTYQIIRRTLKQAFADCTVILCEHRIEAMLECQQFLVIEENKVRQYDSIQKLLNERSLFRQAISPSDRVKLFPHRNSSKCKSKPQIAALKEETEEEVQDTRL

SMILES	Nauc @ 3 μM	Nauc @ 10 μM
CC1CC2C3C(=O)N(c4cc(Cl)cc(Cl)c4)C(=O)C3C3(C(=O)Nc4c(Cl)cc(Cl)cc43)N2C1 (single isomer, unassigned) [Example 72]	+++ (NAUC “+++” refers to an observed NAUC >170% of positive control)	+ (NAUC “+” refers to an observed NAUC <140% of positive control)
[2H]C12C(=O)N(c3cc(Cl)cc(Cl)c3)C(=O)C1([2H])C1(C(=O)Nc3c(Cl)cc(Cl)cc31)N1C[C@@H](O)CC12 (single isomer, unassigned) [Example 84]	++ (NAUC “++” refers to an observed NAUC 170-140% of positive control)	++ (NAUC “++” refers to an observed NAUC 170-140% of positive control)
O=C1C2C3C[C@H](Cl)CN3C3(C(=O)Nc4c(Cl)cc(Cl)cc43)C2C(=O)N1c1cc(Cl)cc(Cl)c1 (single isomer, unassigned) [Example 86]	+ (NAUC “+” refers to an observed NAUC <140% of positive control)	+++ (NAUC “+++” refers to an observed NAUC >170% of positive control)
O=C1C2C3C[C@H](Cl)CN3C3(C(=O)Nc4c(Cl)cc(Cl)cc43)C2C(=O)N1c1cc(Cl)cc(Cl)c1 (single isomer, unassigned) [Example 87]	+++ (NAUC “+++” refers to an observed NAUC >170% of positive control)	+++ (NAUC “+++” refers to an observed NAUC >170% of positive control)
O=C1C2C3C[C@H](Cl)CN3C3(C(=O)Nc4c(Cl)cc(Cl)cc43)C2C(=O)N1c1cc(Cl)cc(Cl)c1 (single isomer, unassigned) [Example 88]	+ (NAUC “+” refers to an observed NAUC <140% of positive control)	+++ (NAUC “+++” refers to an observed NAUC >170% of positive control)
COc1cc(Cl)cc(N2C(=O)C3C4CCCN4C4(C(=O)Nc5c(Cl)cc(Cl)cc54)C3C2=O)c1 (single isomer, unassigned) [Example 104]	+ (NAUC “+” refers to an observed NAUC <140% of positive control)	++ (NAUC “++” refers to an observed NAUC 170-140% of positive control)
COc1cc(Cl)cc(N2C(=O)C3C4CCCN4C4(C(=O)Nc5c(Cl)cc(Cl)cc54)C3C2=O)c1 (single isomer, unassigned) [Example 105]	++ (NAUC “++” refers to an observed NAUC 170-140% of positive control)	++ (NAUC “++” refers to an observed NAUC 170-140% of positive control)
COc1cc(Cl)cc(N2C(=O)C3C4CCCN4C4(C(=O)Nc5c(Cl)cc(Cl)cc54)C3C2=O)c1 (single isomer, unassigned) [Example 106]	+++ (NAUC “+++” refers to an observed NAUC >170% of positive control)	+++ (NAUC “+++” refers to an observed NAUC >170% of positive control)
COc1cc(Cl)cc(N2C(=O)C3C4C[C@H](Cl)CN4C4(C(=O)Nc5c(Cl)cc(Cl)cc54)C3C2=O)c1 (single isomer, unassigned) [Example 107]	+++ (NAUC “+++” refers to an observed NAUC >170% of positive control)	+++ (NAUC “+++” refers to an observed NAUC >170% of positive control)
O=C1C2C3C[C@H](Cl)CN3C3(C(=O)Nc4c(Cl)cc(Cl)cc43)C2C(=O)N1c1cc(Cl)cc(Cl)n1 (single isomer, unassigned) [Example 108]	+++ (NAUC “+++” refers to an observed NAUC >170% of positive control)	++ (NAUC “++” refers to an observed NAUC 170-140% of positive control)
COc1cc(Cl)cc(N2C(=O)C3C4C[C@H](F)CN4C4(C(=O)Nc5c(Cl)cc(Cl)cc54)C3C2=O)c1 (single isomer, unassigned) [Example 110]	+++ (NAUC “+++” refers to an observed NAUC >170% of positive control)	+++ (NAUC “+++” refers to an observed NAUC >170% of positive control)
COc1cc(Cl)cc(N2C(=O)C3C4C[C@H](Cl)CN4C4(C(=O)Nc5c(Cl)cc(Cl)cc54)C3C2=O)c1 (single isomer, unassigned) [Example 111]	+++ (NAUC “+++” refers to an observed NAUC >170% of positive control)	+++ (NAUC “+++” refers to an observed NAUC >170% of positive control)
COc1c(Cl)cc(N2C(=O)C3C4CCCN4C4(C(=O)Nc5c(Cl)cc(Cl)cc54)C3C2=O)cc1Cl (single isomer, unassigned) [Example 112]	+++ (NAUC “+++” refers to an observed NAUC >170% of positive control)	+++ (NAUC “+++” refers to an observed NAUC >170% of positive control)
COc1c(Cl)cc(N2C(=O)C3C4C[C@H](Cl)CN4C4(C(=O)Nc5c(Cl)cc(Cl)cc54)C3C2=O)cc1Cl (single isomer, unassigned) [Example 114]	+++ (NAUC “+++” refers to an observed NAUC >170% of positive control)	+++ (NAUC “+++” refers to an observed NAUC >170% of positive control)
COc1cc(Cl)cc(N2C(=O)C3C4C[C@H](O)CN4C4(C(=O)Nc5c(Cl)cc(Cl)cc54)C3C2=O)c1 (single isomer, unassigned) [Example 115]	+ (NAUC “+” refers to an observed NAUC <140% of positive control)	++ (NAUC “++” refers to an observed NAUC 170-140% of positive control)
O=C1C2C3CC(=C(F)F)CN3C3(C(=O)Nc4c(Cl)cc(Cl)cc43)C2C(=O)N1c1cc(Cl)cc(Cl)c1 (single isomer, unassigned) [Example 116]	+++ (NAUC “+++” refers to an observed NAUC >170% of positive control)	+++ (NAUC “+++” refers to an observed NAUC >170% of positive control)
COc1c(Cl)cc(N2C(=O)C3C4C[C@H](F)CN4C4(C(=O)Nc5c(Cl)cc(Cl)cc54)C3C2=O)cc1Cl (single isomer, unassigned) [Example 118]	++ (NAUC “++” refers to an observed NAUC 170-140% of positive control)	++ (NAUC “++” refers to an observed NAUC 170-140% of positive control)
CC1(C)CC2C3C(=O)N(c4cc(Cl)cc(Cl)c4)C(=O)C3C3(C(=O)Nc4c(Cl)cc(Cl)cc43)N2C1 (single isomer, unassigned) [Example 119]	+++ (NAUC “+++” refers to an observed NAUC >170% of positive control)	+++ (NAUC “+++” refers to an observed NAUC >170% of positive control)
CC1(C)CC2C3C(=O)N(c4cc(Cl)cc(Cl)c4)C(=O)C3C3(C(=O)Nc4c(Cl)cc(Cl)cc43)N2C1 (single isomer, unassigned) [Example 120]	+++ (NAUC “+++” refers to an observed NAUC >170% of positive control)	+ (NAUC “+” refers to an observed NAUC <140% of positive control)
COc1cc(Cl)cc(N2C(=O)C3C4CC(=C(F)F)CN4C4(C(=O)Nc5c(Cl)cc(Cl)cc54)C3C2=O)c1 (single isomer, unassigned) [Example 138]	+++ (NAUC “+++” refers to an observed NAUC >170% of positive control)	+ (NAUC “+” refers to an observed NAUC <140% of positive control)
